This is an account of results in ChEMBL document CHEMBL1133844, “2-Benzyl-3,4-iminobutanoic acid as inhibitor of carboxypeptidase A” (Bioorg Med Chem Lett, 2001).

pKi: −log10 of the molar value.

The nature of this assay: The compound was tested for the inhibition of Carboxypeptidase A.

Broadly, the pKi is −log10 of the Ki, conventionally taken in molar units. Low readings indicate a high Ki, high ones a low Ki. Take `O=C(O)[C@@H](Cc1ccccc1)C1CC1`: the pKi was 3.19.

In turn, `O=C(O)[C@@H](Cc1ccccc1)[C@H]1CN1` had a pKi of 3.92.

Compound `O=C(O)[C@H](Cc1ccccc1)C1CC1` had a pKi of 3.10.

The compound `O=C(O)[C@H](Cc1ccccc1)[C@@H]1CN1` had a pKi of 4.46.

Turning to `O=C(O)C(Cc1ccccc1)C1CC1` (racemic), the pKi was 3.10.

On to `O=C(O)C(Cc1ccccc1)c1c[nH]cn1` (racemic), for which the pKi is 6.10.

Take `O=C(O)[C@H](Cc1ccccc1)[C@H]1CN1` (single isomer, unassigned): the pKi was 3.64.

Regarding `O=C(O)[C@@H](Cc1ccccc1)[C@@H]1CN1` (single isomer, unassigned), the pKi was 3.29.
